Tests used:
MCF7S [1] = assay: cells; conditions: Homo sapiens
MCF7S [2] = assay: Inhibition of MCF-7 cell proliferation at 5 uM; format: functional; conditions: Homo sapiens
Estrogen receptor [3] = biological target: T1, Estrogen receptor (Homo sapiens, UniProt Q92731+P03372); assay: Displacement of [3H]-estradiol from estrogen receptor (ER); format: protein assay
[4] = biological target: T2, Anti-estrogen binding site (AEBS) (Homo sapiens, UniProt Q15125+Q9UBM7); assay: Displacement of [3H]tamoxifen from antiestrogen binding site (AEBS); format: protein-complex assay
T2 sequence (Q15125 whole entry): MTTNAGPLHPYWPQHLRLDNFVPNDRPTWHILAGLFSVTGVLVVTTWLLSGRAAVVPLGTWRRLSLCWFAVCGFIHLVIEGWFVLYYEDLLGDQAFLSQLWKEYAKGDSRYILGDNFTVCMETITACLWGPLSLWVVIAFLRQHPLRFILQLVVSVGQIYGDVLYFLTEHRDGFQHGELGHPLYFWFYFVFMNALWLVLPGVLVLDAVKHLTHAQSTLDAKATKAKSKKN
T2 sequence (Q9UBM7 whole entry): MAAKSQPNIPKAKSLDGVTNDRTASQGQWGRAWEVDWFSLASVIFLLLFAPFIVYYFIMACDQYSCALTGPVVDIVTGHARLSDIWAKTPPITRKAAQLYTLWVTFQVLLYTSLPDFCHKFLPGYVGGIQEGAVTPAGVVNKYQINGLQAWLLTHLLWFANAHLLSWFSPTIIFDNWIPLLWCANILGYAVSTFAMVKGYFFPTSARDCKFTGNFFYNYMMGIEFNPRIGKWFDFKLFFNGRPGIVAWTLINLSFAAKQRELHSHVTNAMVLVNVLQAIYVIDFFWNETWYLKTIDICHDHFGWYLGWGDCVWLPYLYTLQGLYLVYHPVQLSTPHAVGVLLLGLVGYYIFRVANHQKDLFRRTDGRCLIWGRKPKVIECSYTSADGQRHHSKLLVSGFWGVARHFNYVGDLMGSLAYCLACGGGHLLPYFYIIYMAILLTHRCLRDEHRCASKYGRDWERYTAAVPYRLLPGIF

[5] = biological target: T2, Anti-estrogen binding site (AEBS); assay: Relative binding affinity for antiestrogen binding site compared to tamoxifen; format: protein-complex assay
Estrogen receptor [6] = biological target: T1, Estrogen receptor; assay: Relative binding affinity for estrogen receptor compared to estradiol; format: protein assay

CCN(CC)CCOc1ccc(/C(=C(/Cl)c2ccc(O)cc2)c2ccccc2)cc1
inhibition at 5 µM (MCF7S [1]): 57%

CCN(CC)CCOc1ccc(C(=C(Cl)c2ccccc2)c2ccccc2)cc1 [CLOMIPHENE]
inhibition at 5 µM (MCF7S [1]): 80%

CCN(CC)CCOc1ccc(/C(=C(/Cl)c2ccc(O)c(OC)c2)c2ccccc2)cc1
inhibition at 5 µM (MCF7S [2]): 49% | IC50 (Estrogen receptor [3]): 3 µM | IC50 [4]: 0.032 µM | Ratio [5]: 38

CCN(CC)CCOc1ccc(/C(=C(/Cl)c2ccccc2)c2ccc(O)c(OC)c2)cc1 [3'-METHOXY-4'HYDROXYCLOMIPHENE]
Ratio (Estrogen receptor [6]): 0.4 | IC50 (Estrogen receptor [3]): 0.78 µM | inhibition at 5 µM (MCF7S [1]): 76% | IC50 [4]: 0.022 µM | Ratio [5]: 55

Reference: ChEMBL document CHEMBL1124323, “Phenolic metabolites of clomiphene: [(E,Z)-2-[4-(1,2-diphenyl-2-chlorovinyl)phenoxy]ethyl]diethylamine. Preparation, electrophilicity, and effects in MCF 7 breast cancer cells” (J Med Chem, 1989)
